Experimental data from patent US20110082130A1 (LIGAND PHARMACEUTICALS, INC., priority 2006, published 2011).
pKi: −log10 of the molar value.

target: T1, chimeric human H3 receptor (Homo sapiens, UniProt Q9Y5N1); experiment: Chimeric human H3 receptor GTP binding assay (agonist-stimulated GTP-gamma35S binding, Example 7); assay type: biochemical; details: Table II; "*" = Ki in assay of Example 7 less than 1 micromolar
T1 construct: made in house; host or cells: Sf9 insect cells (baculovirus); P2 membrane preparation
Outline: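 Sf9 membranes co-expressing chimeric human H3 receptor and heterotrimeric G-protein, 35 μg/tube, in pH 7.4 Tris buffer with 10 μM GDP. Test compounds (10^−10–10^−6 M) competed against 1 μM histamine, […] GTP-gamma35S, 60 min at room temperature. Filter-bound radioactivity counted; IC50 converted to Ki by Cheng-Prusoff. Agonism/inverse agonism tested without histamine (EC50).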

T1 sequence (Q9Y5N1 with tags, fused parts or gaps): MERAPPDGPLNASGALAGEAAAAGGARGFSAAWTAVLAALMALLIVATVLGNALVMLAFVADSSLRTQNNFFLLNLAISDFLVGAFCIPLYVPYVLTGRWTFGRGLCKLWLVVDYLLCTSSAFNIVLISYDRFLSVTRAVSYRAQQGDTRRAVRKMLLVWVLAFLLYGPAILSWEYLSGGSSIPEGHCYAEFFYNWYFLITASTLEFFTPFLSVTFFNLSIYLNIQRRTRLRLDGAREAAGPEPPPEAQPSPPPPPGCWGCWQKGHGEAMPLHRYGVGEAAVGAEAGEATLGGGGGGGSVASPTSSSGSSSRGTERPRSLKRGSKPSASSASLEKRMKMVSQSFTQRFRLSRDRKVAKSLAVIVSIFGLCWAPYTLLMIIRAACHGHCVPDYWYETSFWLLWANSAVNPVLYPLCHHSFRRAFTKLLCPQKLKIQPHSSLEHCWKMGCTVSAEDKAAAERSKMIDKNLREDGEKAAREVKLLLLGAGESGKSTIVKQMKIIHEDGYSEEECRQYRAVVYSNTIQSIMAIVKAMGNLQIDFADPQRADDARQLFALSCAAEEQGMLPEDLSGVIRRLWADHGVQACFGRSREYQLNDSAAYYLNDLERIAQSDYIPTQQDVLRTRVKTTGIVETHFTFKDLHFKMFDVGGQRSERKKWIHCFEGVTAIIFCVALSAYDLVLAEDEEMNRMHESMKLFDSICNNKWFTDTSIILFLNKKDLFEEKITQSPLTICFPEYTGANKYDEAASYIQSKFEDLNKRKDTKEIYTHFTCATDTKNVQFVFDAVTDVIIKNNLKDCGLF

Compound	pKi
O=C(CN1CCc2cc(-n3cccn3)ccc2C1)N1CCN2CCCCC2C1 (centres unmarked) [Compound 153, 2-{[6-(1H-pyrazol-1-yl)-3,4-dihydroisoquinolin-2(1H)-yl]acetyl}octahydro-2H-pyrido[1,2-a]pyrazine]	> 6.00
CC(=O)c1ccc2c(c1)CCN(CC(=O)N1CCN3CCCCC3C1)C2 (centres unmarked) [Compound 154, 1-{2-[2-(octahydro-2H-pyrido[1,2-a]pyrazin-2-yl)-2-oxoethyl]-1,2,3,4-tetrahydroisoquinolin-6-yl}ethanone]	> 6.00
O=C(CN1CCc2nc(N3CCCCC3)ncc2C1)N1CCN(C2CCC2)CC1 [Compound 155, 6-[2-(4-cyclobutylpiperazin-1-yl)-2-oxoethyl]-2-piperidin-1-yl-5,6,7,8-tetrahydropyrido[4,3-d]pyrimidine]	> 6.00
O=C(CN1CCc2nc(N3CCCCC3)ncc2C1)N1CCN(C2CCCC2)CC1 [Compound 156, 6-[2-(4-cyclopentylpiperazin-1-yl)-2-oxoethyl]-2-piperidin-1-yl-5,6,7,8-tetrahydropyrido[4,3-d]pyrimidine]	> 6.00
O=C(CN1CCc2cc(-n3ccc(C(F)(F)F)n3)ccc2C1)N1CCN(C2CCC2)CC1 [Compound 157, 2-[2-(4-cyclobutylpiperazin-1-yl)-2-oxoethyl]-6-[3-(trifluoromethyl)-1H-pyrazol-1-yl]-1,2,3,4-tetrahydroisoquinoline]	> 6.00
O=C(CN1CCc2cc(-n3ccc(C(F)(F)F)n3)ccc2C1)N1CCN2CCCCC2C1 (centres unmarked) [Compound 159, 2-({6-[3-(trifluoromethyl)-1H-pyrazol-1-yl]-3,4-dihydroisoquinolin-2(1H)-yl}acetyl)octahydro-2H-pyrido[1,2-a]pyrazine]	> 6.00
CC(C)N1CCN(C(=O)CN2CCc3cc(-c4cccnn4)ccc3C2)CC1 [Compound 164, 2-[2-(4-isopropylpiperazin-1-yl)-2-oxoethyl]-6-pyridazin-3-yl-1,2,3,4-tetrahydroisoquinoline]	> 6.00
CC1CCCC2CN(C(=O)CN3CCc4cc(-c5cccnn5)ccc4C3)CCN12 (centres unmarked) [Compound 165, 6-methyl-2-[(6-pyridazin-3-yl-3,4-dihydroisoquinolin-2(1H)-yl)acetyl]octahydro-2H-pyrido[1,2-a]pyrazine]	> 6.00
Cc1ccc(-c2ccc3c(c2)CCN(CC(=O)N2CCN(C4CCC4)CC2)C3)nn1 [Compound 166, 2-[2-(4-cyclobutylpiperazin-1-yl)-2-oxoethyl]-6-(6-methylpyridazin-3-yl)-1,2,3,4-tetrahydroisoquinoline]	> 6.00
O=C(CN1CCc2nc(Cl)ccc2C1)N1CCN(C2CCC2)CC1 [Compound 168, 2-chloro-6-[2-(4-cyclobutylpiperazin-1-yl)-2-oxoethyl]-5,6,7,8-tetrahydro-1,6-naphthyridine]	> 6.00
CC1(N2CCN(C(=O)CN3CCc4cc(-c5cncnc5)ccc4C3)CC2)CCC1 [Compound 169, 2-{2-[4-(1-methylcyclobutyl)piperazin-1-yl]-2-oxoethyl}-6-pyrimidin-5-yl-1,2,3,4-tetrahydroisoquinoline]	> 6.00
O=C(CN1CCc2nc(-c3cncnc3)ccc2C1)N1CCN(C2CCC2)CC1 [Compound 171, 6-[2-(4-cyclobutylpiperazin-1-yl)-2-oxoethyl]-2-pyrimidin-5-yl-5,6,7,8-tetrahydro-1,6-naphthyridine]	> 6.00
O=C(CN1CCc2nc(-c3cccnn3)ccc2C1)N1CCN(C2CCC2)CC1 [Compound 172, 6-[2-(4-cyclobutylpiperazin-1-yl)-2-oxoethyl]-2-pyridazin-3-yl-5,6,7,8-tetrahydro-1,6-naphthyridine]	> 6.00
CC(=O)c1ccc2c(n1)CCN(CC(=O)N1CCN(C3CCC3)CC1)C2 [Compound 173, 1-{6-[2-(4-cyclobutylpiperazin-1-yl)-2-oxoethyl]-5,6,7,8-tetrahydro-1,6-naphthyridin-2-yl}ethanone]	> 6.00
O=C(CN1CCc2nc(N3CCOCC3)ccc2C1)N1CCN(C2CCC2)CC1 [Compound 175, 6-[2-(4-cyclobutylpiperazin-1-yl)-2-oxoethyl]-2-morpholin-4-yl-5,6,7,8-tetrahydro-1,6-naphthyridine]	> 6.00
O=C(CN1CCc2nc(N3CCCC3)ccc2C1)N1CCN(C2CCC2)CC1 [Compound 176, 6-[2-(4-cyclobutylpiperazin-1-yl)-2-oxoethyl]-2-pyrrolidin-1-yl-5,6,7,8-tetrahydro-1,6-naphthyridine]	> 6.00
CC1CN(c2ccc3c(n2)CCN(CC(=O)N2CCN(C4CCC4)CC2)C3)CC(C)O1 (centres unmarked) [Compound 182, 6-[2-(4-cyclobutylpiperazin-1-yl)-2-oxoethyl]-2-(2,6-dimethylmorpholin-4-yl)-5,6,7,8-tetrahydro-1,6-naphthyridine]	> 6.00
O=C(CN1CCc2nc(N3CCC(F)(F)CC3)ccc2C1)N1CCN(C2CCC2)CC1 [Compound 183, 6-[2-(4-cyclobutylpiperazin-1-yl)-2-oxoethyl]-2-(4,4-difluoropiperidin-1-yl)-5,6,7,8-tetrahydro-1,6-naphthyridine]	> 6.00
COCCN(C)c1ccc2c(n1)CCN(CC(=O)N1CCN(C3CCC3)CC1)C2 [Compound 184, 6-[2-(4-cyclobutylpiperazin-1-yl)-2-oxoethyl]-N-(2-methoxyethyl)-N-methyl-5,6,7,8-tetrahydro-1,6-naphthyridin-2-amine]	> 6.00
O=C(CN1CCc2nc(OC3CCCC3)ccc2C1)N1CCN(C2CCC2)CC1 [Compound 185, 6-[2-(4-cyclobutylpiperazin-1-yl)-2-oxoethyl]-2-(cyclopentyloxy)-5,6,7,8-tetrahydro-1,6-naphthyridine]	> 6.00
CC1CCC[C@H]2CN(C(=O)CN3CCc4nc(N5CCOCC5)ncc4C3)CCN12 (some centres unmarked) [Compound 186, 6-[2-(6-methyloctahydro-2H-pyrido[1,2-a]pyrazin-2-yl)-2-oxoethyl]-2-morpholin-4-yl-5,6,7,8-tetrahydropyrido[4,3-d]pyrimidine]	> 6.00
CC1CN(c2ncc3c(n2)CCN(CC(=O)N2CCN(C4CCC4)CC2)C3)CC(C)O1 (centres unmarked) [Compound 187, 6-[2-(4-cyclobutylpiperazin-1-yl)-2-oxoethyl]-2-(2,6-dimethylmorpholin-4-yl)-5,6,7,8-tetrahydropyrido[4,3-d]pyrimidine]	> 6.00
CC(C)[C@@H]1CN(C(=O)CN2CCc3cc(-c4cncnc4)ccc3C2)CCN1C1CCC1 [Compound 189, 2-{2-[(3R)-4-cyclobutyl-3-isopropylpiperazin-1-yl]-2-oxoethyl}-6-pyrimidin-5-yl-1,2,3,4-tetrahydroisoquinoline]	> 6.00
Cc1ccc(-c2ccc3c(c2)CCN(CC(=O)N2CCN(C4CCCC4C)CC2)C3)nn1 (centres unmarked) [Compound 190, 2-{2-[4-(2-methylcyclopentyl)piperazin-1-yl]-2-oxoethyl}-6-(6-methylpyridazin-3-yl)-1,2,3,4-tetrahydroisoquinoline]	> 6.00

The remaining lines, values ahead:

pKi	Compound
> 6.00	CC1CCCC1N1CCN(C(=O)CN2CCc3cc(-c4cccnn4)ccc3C2)CC1 (centres unmarked) [Compound 191, 2-{2-[4-(2-methylcyclopentyl)piperazin-1-yl]-2-oxoethyl}-6-pyridazin-3-yl-1,2,3,4-tetrahydroisoquinoline]
> 6.00	Cn1cc(-c2ccc3c(c2)CCN(CC(=O)N2CCN(C4CCC4)CC2)C3)ccc1=O [Compound 192, 5-{2-[2-(4-cyclobutylpiperazin-1-yl)-2-oxoethyl]-1,2,3,4-tetrahydroisoquinolin-6-yl}-1-methylpyridin-2(1H)-one]
> 6.00	O=C(CN1CCc2cc(-n3ncccc3=O)ccc2C1)N1CCN(C2CCC2)CC1 [Compound 193, 2-{2-[2-(4-cyclobutylpiperazin-1-yl)-2-oxoethyl]-1,2,3,4-tetrahydroisoquinolin-6-yl}pyridazin-3(2H)-one]
> 6.00	O=C(CN1CCc2cc(OCc3ccccc3)ccc2C1)N1CCN(C2CCC2)CC1 [Compound 194, 6-(benzyloxy)-2-[2-(4-cyclobutylpiperazin-1-yl)-2-oxoethyl]-1,2,3,4-tetrahydroisoquinoline]
> 6.00	O=C(CN1CCc2cc(O)ccc2C1)N1CCN(C2CCC2)CC1 [Compound 195, 2-[2-(4-cyclobutylpiperazin-1-yl)-2-oxoethyl]-1,2,3,4-tetrahydroisoquinolin-6-ol]
> 6.00	O=C(CN1CCc2cc(OC3CCCC3)ccc2C1)N1CCN(C2CCC2)CC1 [Compound 196, 2-[2-(4-cyclobutylpiperazin-1-yl)-2-oxoethyl]-6-(cyclopentyloxy)-1,2,3,4-tetrahydroisoquinoline]
> 6.00	CC(C)Oc1ccc2c(c1)CCN(CC(=O)N1CCN(C3CCC3)CC1)C2 [Compound 197, 2-[2-(4-cyclobutylpiperazin-1-yl)-2-oxoethyl]-6-isopropoxy-1,2,3,4-tetrahydroisoquinoline]
> 6.00	O=C(CN1CCc2cc(Oc3ccc(C(F)(F)F)cn3)ccc2C1)N1CCN(C2CCC2)CC1 [Compound 198, 2-[2-(4-cyclobutylpiperazin-1-yl)-2-oxoethyl]-6-{[5-(trifluoromethyl)pyridin-2-yl]oxy}-1,2,3,4-tetrahydroisoquinoline]
> 6.00	COc1ccc(-n2cc3c(n2)CCN(CC(=O)N2CCN(C4CCC4)CC2)C3)nn1 [Compound 199, 5-[2-(4-cyclobutylpiperazin-1-yl)-2-oxoethyl]-2-(6-methoxypyridazin-3-yl)-4,5,6,7-tetrahydro-2H-pyrazolo[4,3-c]pyridine]
> 6.00	Cc1ccc(-n2cc3c(n2)CCN(CC(=O)N2CCN(C4CCC4)CC2)C3)nn1 [Compound 200, 5-[2-(4-cyclobutylpiperazin-1-yl)-2-oxoethyl]-2-(6-methylpyridazin-3-yl)-4,5,6,7-tetrahydro-2H-pyrazolo[4,3-c]pyridine]
> 6.00	O=C(CN1CCc2nn(-c3ccc(Cl)nn3)cc2C1)N1CCN(C2CCC2)CC1 [Compound 201, 2-(6-chloropyridazin-3-yl)-5-[2-(4-cyclobutylpiperazin-1-yl)-2-oxoethyl]-4,5,6,7-tetrahydro-2H-pyrazolo[4,3-c]pyridine]
